In PubChem BioAssay (NCI):
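Test compounds were applied to cells in 96-well plates for 48 hours at 5 doses. GI50 marks 50% less growth. TGI: total growth inhibition.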

Assays:
Assay in all cases: NCI tumour cell line growth inhibition, 48 h
[1] = system: 786-0 renal
[2] = system: A498 renal
[3] = system: A549 NSCLC
[4] = system: ACHN renal
[5] = system: BT-549 breast
[6] = system: CAKI-1 renal
[7] = system: CCRF-CEM leukemia
[8] = system: COLO 205 colon
[9] = system: DU-145 prostate
[10] = system: EKVX NSCLC
[11] = system: HCC-2998 colon
[12] = system: HCT-116 colon
[13] = system: HCT-15 colon
[14] = system: HL-60(TB) leukemia
[15] = system: HOP-62 NSCLC
[16] = system: HOP-92 NSCLC
[17] = system: HS 578T breast
[18] = system: HT29 colon
[19] = system: IGROV1 ovarian
[20] = system: K-562 leukemia
[21] = system: KM12 colon
[22] = system: LOX IMVI melanoma
[23] = system: M14 melanoma
[24] = system: MALME-3M melanoma
[25] = system: MCF7 breast
[26] = system: MDA-MB-231 breast
[27] = system: MDA-MB-435
[28] = system: MDA-MB-468 breast
[29] = system: MOLT-4 leukemia
[30] = system: NCI-H226 lung
[31] = system: NCI-H23 lung
[32] = system: NCI-H460 lung
[33] = system: NCI-H522 lung
[34] = system: NCI/ADR-RES ovarian
[35] = system: OVCAR-3 ovarian
[36] = system: OVCAR-4 ovarian
[37] = system: OVCAR-5 ovarian
[38] = system: OVCAR-8 ovarian
[39] = system: PC-3 prostate
[40] = system: RPMI-8226 leukemia
[41] = system: RXF 393 renal
[42] = system: SF-268 CNS
[43] = system: SF-295 CNS
[44] = system: SF-539 CNS
[45] = system: SK-MEL-2 melanoma
[46] = system: SK-MEL-28 melanoma
[47] = system: SK-MEL-5 melanoma
[48] = system: SK-OV-3 ovarian
[49] = system: SN12C renal
[50] = system: SNB-19 CNS
[51] = system: SNB-75 CNS
[52] = system: SR leukemia
[53] = system: SW-620 colon
[54] = system: T-47D breast
[55] = system: TK-10 renal
[56] = system: U251 CNS
[57] = system: UACC-257 melanoma
[58] = system: UACC-62 melanoma
[59] = system: UO-31 renal

COP(=O)(CC(F)(F)C(F)(F)F)OC showed a GI50 [1] of 6.27 µM, a TGI [1] of 20.4 µM and a GI50 [2] of 22.1 µM. For the same compound, the TGI [2] was 41.1 µM, the GI50 [3] was 22.1 µM and the TGI [3] was 53.1 µM. The GI50 [4] was 2120 nM, the TGI [4] was 4.52 µM and the GI50 [5] was 6.26 µM. For the same compound, the TGI [5] was 20.4 µM, the GI50 [6] was 2600 nM and the TGI [6] was 6.49 µM. The GI50 [7] was 2430 nM, the TGI [7] was 8.68 µM and the GI50 [8] was 1990 nM. For the same compound, the TGI [8] was 3.62 µM, the GI50 [9] was 10.5 µM and the TGI [9] was 24.5 µM. It also gave a GI50 [10] of 2710 nM, a TGI [10] of 8.33 µM and a GI50 [11] of 13.6 µM. It also gave a TGI [11] of 27 µM, a GI50 [12] of 2210 nM and a TGI [12] of 5.99 µM. For the same compound, the GI50 [13] was 1760 nM, the TGI [13] was 4.93 µM and the GI50 [14] was 2150 nM. It also gave a TGI [14] of 5.33 µM, a GI50 [15] of 22.7 µM and a TGI [15] of 52.7 µM. For the same compound, the GI50 [16] was 3.89 µM, the TGI [16] was 13.1 µM and the GI50 [17] was 15.1 µM. The TGI [17] was 79.4 µM, the GI50 [18] was 2460 nM and the TGI [18] was 5.17 µM. It also gave a GI50 [19] of 19.9 µM, a TGI [19] of 42.5 µM and a GI50 [20] of 2930 nM. For the same compound, the TGI [20] was 14.3 µM, the GI50 [21] was 19.4 µM and the TGI [21] was 40.1 µM. For the same compound, the GI50 [22] was 1700 nM, the TGI [22] was 3.54 µM and the GI50 [23] was 1800 nM. The TGI [23] was 3.77 µM, the GI50 [24] was 2320 nM and the TGI [24] was 5.62 µM. For the same compound, the GI50 [25] was 2050 nM, the TGI [25] was 10.5 µM and the GI50 [26] was 8.95 µM. It also gave a TGI [26] of 22.9 µM, a GI50 [27] of 6.7 µM and a TGI [27] of 22.4 µM. The GI50 [28] was 1350 nM, the TGI [28] was 3.16 µM and the GI50 [29] was 3.06 µM. It also gave a TGI [29] of 10.8 µM, a GI50 [30] of 23.2 µM and a TGI [30] of 73.1 µM. The GI50 [31] was 7.36 µM, the TGI [31] was 21.4 µM and the GI50 [32] was 18 µM. The TGI [32] was 38.1 µM, the GI50 [33] was 1480 nM and the TGI [33] was 3.02 µM. It also gave a GI50 [34] of 2830 nM, a TGI [34] of 10.2 µM and a GI50 [35] of 3.44 µM. The TGI [35] was 12.1 µM, the GI50 [36] was 14 µM and the TGI [36] was 30 µM. The GI50 [37] was 17.5 µM, the TGI [37] was 32.2 µM and the GI50 [38] was 17.2 µM. For the same compound, the TGI [38] was 84.2 µM, the GI50 [39] was 7.87 µM and the TGI [39] was 25.2 µM. It also gave a GI50 [40] of 3.07 µM, a TGI [40] of 8.49 µM and a GI50 [41] of 1330 nM. The TGI [41] was 2920 nM, the GI50 [42] was 24.2 µM and the TGI [42] was 64.2 µM. It also gave a GI50 [43] of 16.5 µM, a TGI [43] of 31.8 µM and a GI50 [44] of 2550 nM. For the same compound, the TGI [44] was 7.21 µM, the GI50 [45] was 16.3 µM and the TGI [45] was 38.4 µM. For the same compound, the GI50 [46] was 1870 nM, the TGI [46] was 3.89 µM and the GI50 [47] was 5.98 µM. It also gave a TGI [47] of 19.2 µM, a GI50 [48] of 30.1 µM and a TGI [48] of 76.1 µM. For the same compound, the GI50 [49] was 18.5 µM, the TGI [49] was 37.5 µM and the GI50 [50] was 24.8 µM. It also gave a TGI [50] of 77 µM, a GI50 [51] of 4.93 µM and a TGI [51] of 55.3 µM. For the same compound, the GI50 [52] was 3.15 µM, the TGI [52] was 12.2 µM and the GI50 [53] was 2040 nM. The TGI [53] was 4.2 µM, the GI50 [54] was 2360 nM and the TGI [54] was 7.99 µM. The GI50 [55] was 3.08 µM, the TGI [55] was 7.36 µM and the GI50 [56] was 17.6 µM. It also gave a TGI [56] of 38 µM, a GI50 [57] of 1940 nM and a TGI [57] of 5.83 µM. It also gave a GI50 [58] of 4.95 µM, a TGI [58] of 18 µM and a GI50 [59] of 1710 nM. It also gave a TGI [59] of 3.64 µM.
